The results in this text go back to patent US11235001B2, “RUNX inhibitor” (KYOTO UNIVERSITY, priority 2016, dated 2022).

Assay [1] deals with c-kit, phospho-c-Kit, AKT, phosphorylated AKT, Mitf. In words: Western blot of KIT signalling, LAD2 mast cells. Type of assay: cell-based, human. To be noted: LAD2, 10 μM, 18 hours. The protocol: Cells were washed twice with ice cold phosphate-buffered saline (PBS) and harvested in protein lysis buffer [50 mM Tris (pH 7.4), 100 mM NaCl, 0.1 mM EDTA, 1 mM phenylmethylsulfonyl fluoride, 1 mM β-glycerophosphate, 2.5 mM sodium pyrophosphate, 1 mM Na3VO4, lx protease inhibitor (Roche) and PhosSTOP (Roche)]. Whole cell extracts were separated by SDS-polyacrylamide gel electrophoresis (SDS-PAGE) and electrotransferred onto polyvinylidene difluoride membranes. Membranes were probed with the following antibodies: anti-Ctip1 antibody (Abcam, ab19487), anti-TRIM24 antibody (Bethyl Laboratories, Inc), anti-RUNX1 antibody (A-2), anti-GAPDH (FL-335), anti-p21 (C-19), anti-Bax (N-20) antibodies (Santa Cruz Biotechnology, Inc.), anti-RUNX2, anti-RUNX3, anti-p53 antibodies (Cell Signaling Technology), anti-CBFβ antibody (FL-182, Santa Cruz Biotechnology, Inc.), anti-cleaved caspase-3 antibody (5A1E, Cell Signaling Technology), anti-PARP antibody (46D11, Cell Signaling Technology). For secondary antibodies, anti-rabbit IgG, or anti-mosue IgG HRP-linked antibodies (Cell Signaling Technology) were used. Blots were detected using Chemi-Lumi One Super (nacalai tesque, Inc.) and ChemiDoc™ XRS+ Imager (Bio-Rad Laboratories, Inc.), as recommended by the manufacturers. Protein levels were quantified with Image Lab Software (Bio-Rad Laboratories, Inc.).
To the LAD2 cell line and the HMC-1.2 cell line, 10 μM Chb-M′ was administered. After culturing the cells for 18 hours, extracts were obtained from the cells, and the protein expression levels of c-kit, phospho-c-Kit, AKT, phosphorylated AKT, Mitf, and GAPDH were analyzed by the Western blot analysis (see the above-described “Immunoblotting”) using different antibodies. AKT is an important signaling protein downstream of c-kit. Mitf is a representative transcriptional driver for c-kit. As a control, DMSO was administered. In the figure, “KIT” indicates c-kit, “pKIT” indicates phosphorylated c-kit, and “pAKT” indicates phosphorylated AKT. As primary antibodies, an anti-c-Kit antibody (Ab81, manufactured by Cell Signaling Technology), an anti-phospho-c-Kit (Tyr719) antibody (manufactured by Cell Signaling Technology), an anti-Akt antibody (manufactured by Cell Signaling Technology), an anti-phospho-Akt antibody (Ser473) (manufactured by Cell Signaling Technology), an anti-Mitf antibody (manufactured by Cosmo Bio), and an anti-GAPDH antibody (0411, manufactured by Santa Cruz Biotechnology, Inc.) were used. As secondary antibodies, an ECL™ anti-mouse IgG horseradish peroxidase-linked whole antibody (manufactured by GE Healthcare) and an ECL™ anti-rabbit IgG linked whole antibody (manufactured by GE Healthcare) were used.

The subject of another assay is SU/SR cells. The experiment in a line: Xenograft ALL mouse model (SU/SR). Type of assay: in vivo.
The test system of assay [2] is AML cell lines expressing functional p53 (MV4-11, OCI-AML2, OCI-AML3 and MOLM-13). The experiment in a line: Growth inhibition assay of AML cell lines expressing functional p53. Type of assay: cell-based, human. As to conditions: 48 hours; at between nanomolar to low micromolar levels. The method, then: Growth inhibition of some AML cell lines expressing functional p53 (MV4-11, OCI-AML2, OCI-AML3 and MOLM-13) by PI polyamide conjugates at different concentrations was tested. Briefly, the cells were placed at a density of 1×10^5 cells/mL. Different concentrations of a PI polyamide conjugate (Chb-M′ or Chb-50) were added to media, and the cells were incubated for 48 hours (n=3). The number of viable cells when the PI polyamide conjugate was not added was used as a control (DMSO control). Cell viability was assessed by counting the viable cells with Cell Count Reagent SF (Nacalai tesque, Inc.) and Infinite (registered trademark) 200 PRO multimode reader (TECAN) according to the manufacturer's instructions.

In the next assay the test system is ROR1 and ROR2. In words: qRT-PCR of ROR1 and ROR2 in DAOY. The format is cell-based, human. As to conditions: 1 μM, 6 hours. The protocol: (§1) A total RNA was isolated with RNeasy mini kit (Qiagen) and reverse transcribed with Reverse script kit (TOYOBO) to generate cDNA. Real-time quantitative polymerase chain reaction (PCR) was carried out with 7500 Real-Time PCR System (Applied Biosystems) according to the manufacturer's instructions. Results were normalized to GAPDH levels. Relative expression levels were calculated using the 2-ΔΔCt method.
To medulloblastoma cell line DAOY, 1 μM Chb-M′ was administered. After 6 hours, the mRNA levels of cancer promoting factors ROR1 and ROR2, which are important for medulloblastoma, were evaluated by qRT-PCR (see the above-described “Real-time quantitative PCR (qRT-PCR)”). As a control, DMSO was administered. In the figure, the mRNA expression levels of ROR1 and ROR2 are shown as values relative to those in the DMSO-treated group. As evident from FIG. 48, the expressions of ROR family were suppressed by Chb-M′ at transcriptional levels.

Another assay relates to PC-3 cells. As to conditions: read-out: IC50 (μM) in PC-3 cells; PC-3 (p53null/PTEN del/androgen-independent), 48 hours.
For the next assay, the system named is IL3, CSF2 and CSF2RB. The experiment in a line: qRT-PCR of RUNX1 target genes in MV4-11 cells. The format is cell-based, human. To be noted: 5 μM, 6 hours. In general terms: In qPCR the cycle at which signal appears reflects the starting amount.
The subject of another assay is HL60. As to conditions: HL60, p53null; for IC50: 48 hours.
In assay [3] the test system is BCL11A, TRIM24, p53, p21, BAX, PUMA and MDM2. In words: qRT-PCR of p53 suppressors and p53 target genes in MV4-11 cells. Type of assay: cell-based, human. To be noted: 1 μM, 6 hours. The method, then: as §1

Like-named read-outs stand apart in the source and are kept apart here.

With `CN(C)CCCNC(=O)c1cc(NC(=O)c2cc(NC(=O)c3cc(NC(=O)c4cc(NC(=O)CCCNC(=O)c5nc(NC(=O)c6nc(NC(=O)c7cc(NC(=O)c8nc(NC(=O)CCNC(=O)CCCc9ccc(N(CCCl)CCCl)cc9)cn8C)cn7C)cn6C)cn5C)cn4C)cn3C)cn2C)cn1C` [Chb-M′], in assay [1], the “Expression of c-kit protein” value is “suppressed”, the “Level of phosphorylated AKT protein” value is recorded as “decreased”, the “Protein expression level of Mitf” value is “not affected” and the “Total amount of AKT” value is listed as “not considerably changed”. Also, in assay [1], the phospho-c-Kit protein result is reported as “suppressed”. Further, in the assay with SU/SR cells (NOG mice with SU/SR), the “H&E staining of bone marrow” value was “homogeneity was lost”; the “Invasion of liver by transplanted PhALL cells (hCD45 staining)” value is on record as “reduced”; the “Invasion of spleen by transplanted PhALL cells (hCD45 staining), compared with liver” value is recorded as “same results”; the “hCD45 staining of bone marrow (human leukemia cells)” value is “most of the brown parts lost”. In the assay with SU/SR cells (NOG mice with SU/SR (Ph+), 320 μg/kg IV twice a week), the “Lengthening of overall survival periods” value is on record as “about 1.8 times”. Moreover, in assay [2], the “Growth inhibition of AML cells” value is “highly effective”. The “CI (Fa = 0.5)” value in the assay on KG1a (p53null, concomitant use of Chb-M′ and PRIMA-1, Chou-Talalay, CI<1 synergism) came to 2.01. For the same molecule, the IC50 in the assay on KG1a (read-out: IC50 (μM) of Chb-M′ in concomitant use with PRIMA-1 (5 μM), p53null, 48 hours, with 5 μM PRIMA-1) was over 100 µM. In addition, the IC50 with KG1a (read-out: IC50 (μM) of Chb-M′ single agent administration, p53null, 48 hours) is over 100 µM. Besides, in the assay with ROR1 and ROR2, the “Expressions of ROR family (ROR1 and ROR2 mRNA)” value is “suppressed”. Also, the IC50 in the assay on PC-3 cells was 0.62 µM. In the assay on IL3, CSF2 and CSF2RB, the “Expressions of RUNX1 target genes (IL3, CSF2, and CSF2RB), mRNA” value was “effectively inhibited”. Besides, the “CI (Fa = 0.5)” value in the assay on HL60 (concomitant use of Chb-M′ and PRIMA-1, Chou-Talalay, CI<1 synergism) is on record as 1.10. For the same molecule, in the assay with HL60 (read-out: IC50 (μM) of Chb-M′ in concomitant use with PRIMA-1 (5 μM), with 5 μM PRIMA-1), the IC50 was determined as 11.7 µM. Besides, in the assay with HL60 (read-out: IC50 (μM) of Chb-M′ single agent administration), the IC50 stood at 11.4 µM. Also, in [3], the “Gene expressions of p53 suppressors BCL11A and TRIM24” value is reported as “down-regulated”; the “mRNA expression level of p53” value was “unchanged”; the “mRNA expression levels of p21 and PUMA” value is reported as “increased”.
